Like-named read-outs stand apart in the source and are kept apart here.
Biological target: human BACE1 (Homo sapiens, UniProt P56817)
Experiment: Fluorescent kinetic assay, evaluation of BACE1 binding affinity of test compounds
Format: biochemical
Details: 10 nM human BACE1, 25 μM substrate WABC-6, pH 4.5, room temperature
Protocol: Concentration is determined by absorbance at 354 nm using an extinction coefficient of 18172 M^-1 cm^-1, the concentration of stock substrate is corrected, and the substrate stock stored in small aliquots in -80° C. […] Determination of Stock Enzyme Concentration: the stock concentration of each enzyme is determined by absorbance at 280 nm using an of 64150 M^-1 cm^-1 for hBACE1 and MuBACE1, 62870 M^-1 cm^-1 for hBACE2 in 6 M Guanidinium Hydrochloride (from Research Organics, Cat. # 5134G-2), pH 6. […] Biochem. 182, 319-326). Dilution and mixing steps: total reaction volume: 100 μL 2× inhibitor dilutions in buffer A (66.7 mM Na-Acetate, pH 4.5, 0.0667% CHAPS) were prepared, 4× enzyme dilution in buffer A (66.7 mM Na-Acetate, pH 4.5, 0.0667% CHAPS) were prepared, 100 μM substrate dilution in 1×PBS was prepared, and 50 μL 2× Inhibitor, 25 μL 100 μM substrate are added to each well of 96-well plate (from DYNEX Technologies, VWR #: 11311-046), immediately followed by 25 μL 4× enzyme (added to the inhibitor and substrate mix), and the fluorescence readings are initiated.

Sequence of human BACE1 (P56817 46-501): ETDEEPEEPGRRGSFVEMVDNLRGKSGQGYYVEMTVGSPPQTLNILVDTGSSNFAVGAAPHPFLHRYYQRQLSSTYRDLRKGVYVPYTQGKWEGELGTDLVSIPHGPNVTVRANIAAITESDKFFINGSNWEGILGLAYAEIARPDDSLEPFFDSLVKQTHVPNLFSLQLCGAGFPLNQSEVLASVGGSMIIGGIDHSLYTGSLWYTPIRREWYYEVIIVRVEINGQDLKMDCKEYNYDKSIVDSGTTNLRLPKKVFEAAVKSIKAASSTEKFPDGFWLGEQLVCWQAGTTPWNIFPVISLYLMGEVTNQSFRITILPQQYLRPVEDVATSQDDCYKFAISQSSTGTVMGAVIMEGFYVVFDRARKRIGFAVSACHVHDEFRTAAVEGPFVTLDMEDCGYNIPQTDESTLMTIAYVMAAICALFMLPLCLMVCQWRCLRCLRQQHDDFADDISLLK

Cc1cc(C2(c3ccc(F)cc3)N=C(N)N(C)C2=O)ccc1OC(F)F (stereo not shown) [Example 3, 2-Amino-4-(4-(difluoromethoxy)-3-methylphenyl)-4-(4-fluorophenyl)-1-methyl-1H-imidazol-5(4H)-one]
IC50 (read-out: BACE1 IC50): 0.11 to 1 µM

CCC#Cc1cccc(C2(c3ccc(OC(F)F)c(C)c3)N=C(N)N(C)C2=O)c1 (stereo not shown) [Example 81, 2-amino-4-(3-(but-1-ynyl)phenyl)-4-(4-(difluoromethoxy)-3-methylphenyl)-1-methyl-1H-imidazol-5(4H)-one]
IC50 (read-out: BACE1 IC50): < 0.1 µM

Cc1cc(C2(c3ccc(F)c(Br)c3)N=C(N)N(C)C2=O)ccc1OC(F)F (stereo not shown) [Example 31]
IC50 (BACE1 IC50 μM): 0.11 to 1 µM

CN1C(=O)C(c2cccc(C#CC(C)(C)O)c2)(c2ccc(OC(F)F)c(C3CC3)c2)N=C1N (stereo not shown) [Example 179, 2-amino-4-(3-cyclopropyl-4-(difluoromethoxy)phenyl)-4-(3-(3-hydroxy-3-methylbut-1-ynyl)phenyl)-1-methyl-1H-imidazol-5(4H)-one]
IC50 (read-out: BACE1 IC50): < 0.1 µM

CC(C)c1cc(C2(c3ccccc3)N=C(N)N(C)C2=O)ccc1OC(F)F (stereo not shown) [Example 9, 2-Amino-5-[4-(difluoromethoxy)-3-isopropylphenyl]-3-methyl-5-phenyl-3,5-dihydro-4H-imidazol-4-one]
IC50 (read-out: BACE1 IC50 μM): 0.11 to 1 µM

Cc1cc([C@]2(c3ccc(F)c(OCCC(F)F)c3)N=C(N)N(C)C2=O)ccc1OC(F)F [Example 132, (5R)-2-Amino-5-[4-(difluoromethoxy)-3-methylphenyl]-5-[3-(3,3-difluoropropoxy)-4-fluorophenyl]-3-methyl-3,5-dihydro-4H-imidazol-4-one]
IC50 (read-out: BACE1 IC50): < 0.1 µM

CN1C(=O)C(c2cccc(OCCF)c2)(c2ccc(OC(F)F)c(Cl)c2)N=C1N (stereo not shown) [Example 37, 2-Amino-5-[3-chloro-4-(difluoromethoxy)phenyl]-5-[3-(2-fluoroethoxy)phenyl]-3-methyl-3,5-dihydro-4H-imidazol-4-one]
IC50 (read-out: BACE1 IC50): < 0.1 µM

CN1C(=O)C(c2cccc(C#CC3CC3)c2)(c2ccc(OC(F)F)c(C3CC3)c2)N=C1N (stereo not shown) [Example 176, 2-amino-4-(3-cyclopropyl-4-(difluoromethoxy)phenyl)-4-(3-(cyclopropylethynyl)phenyl)-1-methyl-1H-imidazol-5(4H)-one]
IC50 (read-out: BACE1 IC50): < 0.1 µM

Cc1cc([C@]2(c3cccc(C#CCCF)c3)N=C(N)N(C)C2=O)ccc1OC(F)F [Example 206, (5S)-2-amino-5-[4-(difluoromethoxy)-3-methylphenyl]-5-[3-(4-fluorobut-1-yn-1-yl)phenyl]-3-methyl-3,5-dihydro-4H-imidazol-4-one]
IC50 (read-out: BACE1 IC50): < 0.1 µM

COCC/C=C/c1cccc(C2(c3ccc(OC(F)F)c(Cl)c3)N=C(N)N(C)C2=O)c1 (stereo not shown) [Example 67, 2-Amino-5-[3-chloro-4-(difluoromethoxy)phenyl)-5-[3-((E)-4-methoxybut-1-enyl)phenyl]-3-methyl-3,5-dihydro-4H-imidazol-4-one]
IC50 (read-out: BACE1 IC50): < 0.1 µM

CC(C)c1cc(C2(c3ccc(F)c(C#CC4CC4)c3)N=C(N)N(C)C2=O)ccc1OC(F)F (stereo not shown) [Example 145, 2-Amino-5-[3-(cyclopropylethynyl)-4-fluorophenyl]-5-[4-(difluoromethoxy)-3-isopropylphenyl]-3-methyl-3,5-dihydro-4H-imidazol-4-one]
IC50 (read-out: BACE1 IC50): < 0.1 µM

CCc1cc([C@]2(c3ccc(F)c(OCCC(F)F)c3)N=C(N)N(C)C2=O)ccc1OC(F)F [Example 136, (5R)-2-Amino-5-[4-(difluoromethoxy)-3-ethylphenyl]-5-[3-(3,3-difluoropropoxy)-4-fluorophenyl]-3-methyl-3,5-dihydro-4H-imidazol-4-one]
IC50 (read-out: BACE1 IC50): < 0.1 µM

Cc1cc([C@@]2(c3ccc(F)cc3)N=C(N)N(C)C2=O)ccc1OC(F)F [Example 4B, (5R)-2-Amino-4-(4-(difluoromethoxy)-3-methylphenyl)-4-(4-fluorophenyl)-1-methyl-1H-imidazol-5(4H)-one]
IC50 (read-out: BACE1 IC50): 0.11 to 1 µM

COCCC#Cc1cccc([C@@]2(c3ccc(OC(F)F)c(C4CC4)c3)N=C(N)N(C)C2=O)c1 (single isomer, unassigned) [Example 185]
IC50 (read-out: BACE1 IC50): < 0.1 µM

Cc1cc([C@@]2(c3ccc(F)c(C#CCCF)c3)N=C(N)N(C)C2=O)ccc1OC(F)F [Example 207, (5S)-2-amino-5-[4-(difluoromethoxy)-3-methylphenyl]-5-[4-fluoro-3-(4-fluorobut-1-yn-1-yl)phenyl]-3-methyl-3,5-dihydro-4H-imidazol-4-one]
IC50 (read-out: BACE1 IC50): 0.11 to 1 µM

CCOc1cc(C2(c3ccc(OC(F)F)c(C)c3)N=C(N)N(C)C2=O)ccc1F (stereo not shown) [Example 101, 2-Amino-5-[4-(difluoromethoxy)-3-methylphenyl]-5-(3-ethoxy-4-fluorophenyl)-3-methyl-3,5-dihydro-4H-imidazol-4-one]
IC50 (read-out: BACE1 IC50): < 0.1 µM

CC#Cc1cccc(C2(c3ccc(OC(F)F)c(C4CC4)c3)N=C(N)N(C)C2=O)c1 (stereo not shown) [Example 168, 2-amino-4-(3-cyclopropyl-4-(difluoromethoxy)phenyl)-1-methyl-4-(3-(prop-1-ynyl)phenyl)-1H-imidazol-5(4H)-one]
IC50 (read-out: BACE1 IC50): < 0.1 µM

CN1C(=O)[C@](c2ccc(F)c(C#CCCF)c2)(c2ccc(OC(F)F)c(C3CC3)c2)N=C1N [Example 215, (5R)-2-amino-5-[3-cyclopropyl-4-(difluoromethoxy)phenyl]-5-[4-fluoro-3-(4-fluorobut-1-yn-1-yl)phenyl]-3-methyl-3,5-dihydro-4H-imidazol-4-one]
IC50 (read-out: BACE1 IC50): < 0.1 µM

Cc1cc(C2(c3cccc(C#CCCF)c3)N=C(N)N(C)C2=O)ccc1OC(F)F (stereo not shown) [Example 202, 2-amino-5-[4-(difluoromethoxy)-3-methylphenyl]-5-[3-(4-fluorobut-1-yn-1-yl)phenyl]-3-methyl-3,5-dihydro-4H-imidazol-4-one]
IC50 (read-out: BACE1 IC50): < 0.1 µM

COCC#Cc1cccc([C@@]2(c3ccc(OC(F)F)c(C4CC4)c3)N=C(N)N(C)C2=O)c1 (single isomer, unassigned) [Example 181]
IC50 (read-out: BACE1 IC50): < 0.1 µM

Cc1cc([C@]2(c3ccc(F)c(OCCF)c3)N=C(N)N(C)C2=O)ccc1OC(F)F [Example 113, (5R)-2-Amino-5-[4-(difluoromethoxy)-3-methylphenyl]-5-[4-fluoro-3-(2-fluoroethoxy)phenyl]-3-methyl-3,5-dihydro-4H-imidazol-4-one]
IC50 (read-out: BACE1 IC50): < 0.1 µM

COC/C=C/c1cc(C2(c3ccc(OC(F)F)c(C)c3)N=C(N)N(C)C2=O)ccc1F (stereo not shown) [Example 57, 2-Amino-5-(4-difluoromethoxy-3-methylphenyl)-5-[4-fluoro-3-((E)-3-methoxypropenyl)phenyl]-3-methyl-3,5-dihydro-imidazol-4-one]
IC50 (read-out: BACE1 IC50): < 0.1 µM

CN1C(=O)C(c2cccc(C#CCCF)c2)(c2ccc(OC(F)F)c(C3CC3)c2)N=C1N (stereo not shown) [Example 211, 2-amino-5-[3-cyclopropyl-4-(difluoromethoxy)phenyl]-5-[3-(4-fluorobut-1-yn-1-yl)phenyl]-3-methyl-3,5-dihydro-4H-imidazol-4-one]
IC50 (read-out: BACE1 IC50): < 0.1 µM

CN1C(=O)C(c2cccc(C#CCF)c2)(c2ccc(OC(F)F)c(C3CC3)c2)N=C1N (stereo not shown) [Example 209, 2-amino-5-[3-cyclopropyl-4-(difluoromethoxy)phenyl]-5-[3-(3-fluoroprop-1-yn-1-yl)phenyl]-3-methyl-3,5-dihydro-4H-imidazol-4-one]
IC50 (read-out: BACE1 IC50): < 0.1 µM

CN1C(=O)C(c2ccc(F)c(C#CCF)c2)(c2ccc(OC(F)F)c(C3CC3)c2)N=C1N (stereo not shown) [Example 210, 2-amino-5-[3-cyclopropyl-4-(difluoromethoxy)phenyl]-5-[4-fluoro-3-(3-fluoroprop-1-yn-1-yl)phenyl]-3-methyl-3,5-dihydro-4H-imidazol-4-one]
IC50 (read-out: BACE1 IC50): < 0.1 µM

CN1C(=O)[C@](c2ccccc2)(c2ccc(OC(F)F)c(CCF)c2)N=C1N (single isomer, unassigned) [Example 75]
IC50 (read-out: BACE1 IC50): < 0.1 µM

CN1C(=O)[C@@](c2ccc(F)c(C#CCCF)c2)(c2ccc(OC(F)F)c(C3CC3)c2)N=C1N [Example 214, (5S)-2-amino-5-[3-cyclopropyl-4-(difluoromethoxy)phenyl]-5-[4-fluoro-3-(4-fluorobut-1-yn-1-yl)phenyl]-3-methyl-3,5-dihydro-4H-imidazol-4-one]
IC50 (read-out: BACE1 IC50): > 1 µM

CN1C(=O)C(c2ccc(OC(F)F)c(Cl)c2)(c2ccc(F)c(OCCCF)c2)N=C1N (stereo not shown) [Example 98, 2-Amino-5-[3-chloro-4-(difluoromethoxy)phenyl]-5-[4-fluoro-3-(3-fluoropropoxy)phenyl]-3-methyl-3,5-dihydro-4H-imidazol-4-one]
IC50 (read-out: BACE1 IC50): < 0.1 µM

CN1C(=O)[C@@](c2cccc(C#CCF)c2)(c2ccc(OC(F)F)c(C3CC3)c2)N=C1N [Example 212, (5R)-2-amino-5-[3-cyclopropyl-4-(difluoromethoxy)phenyl]-5-[3-(3-fluoroprop-1-yn-1-yl)phenyl]-3-methyl-3,5-dihydro-4H-imidazol-4-one]
IC50 (read-out: BACE1 IC50): > 1 µM

CCc1cc([C@@]2(c3ccccc3)N=C(N)N(C)C2=O)ccc1OC(F)F [Example 24, (5R)-2-Amino-4-[4-(difluoromethoxy)-3-ethylphenyl]-1-methyl-4-phenyl-1H-imidazol-5(4H)-one]
IC50 (BACE1 IC50 μM): > 1 µM

CCCC#Cc1cc(C2(c3ccc(OC(F)F)c(CCF)c3)N=C(N)N(C)C2=O)ccc1F (stereo not shown) [Example 88, 2-amino-5-[4-(difluoromethoxy)-3-(2-fluoroethyl)phenyl]-5-(4-fluoro-3-pent-1-yn-1-ylphenyl)-3-methyl-3,5-dihydro-4H-imidazol-4-one]
IC50 (read-out: BACE1 IC50): < 0.1 µM

Reference: patent publication US20090042964A1, “AMINO-5-[SUBSTITUTED-4-(DIFLUOROMETHOXY)PHENYL]-5-PHENYLIMIDAZOLONE COMPOUNDS AS BETA-SECRETASE INHIBITORS” (Wyeth, priority 2007, published 2009)
